In ChEMBL document CHEMBL4043145, “Pyridine-pyrimidine amides that prevent HGF-induced epithelial scattering by two distinct mechanisms” (Bioorg Med Chem Lett, 2017):

Columns and labels:
MDCK-II [1] = experiment: Antimigratory activity against MDCK2 cells assessed as inhibition of HGF-induced cell scattering at 1 uM pretreated for 18 hrs followed by HGF addition measured after 20 to 24 hrs by crystal violet staining-based assay relative to control; format: functional; settings: Canis lupus familiaris
MCF7 = experiment: Antiproliferative activity against human MCF7 cells at 10 uM relative to control; format: functional, cell-based
MDA-MB-468 = experiment: Antiproliferative activity against human MDA-MB-468 cells at 10 uM relative to control; format: functional
MDCK-II [2] = experiment: Antimigratory activity against MDCK2 cells assessed as inhibition of HGF-induced cell scattering pretreated for 18 hrs followed by HGF addition measured after 20 to 24 hrs by crystal violet staining-based assay; format: functional; settings: Canis lupus familiaris

## Cc1nc(NC(=O)c2cccc([N+](=O)[O-])c2)ccc1I
MDCK-II [1]
  inhibition at 1 µM: 71 to 95.9%
MCF7
  inhibition at 10 µM: 84%
MDA-MB-468
  inhibition at 10 µM: 73%
MDCK-II [2]
  EC50: 3000 nM
